Experimental data reported in US20210038515A1 (Azurity Pharmaceuticals, Inc., priority 2014, published 2021).

Test system: Clostridium difficile
Assay: Agar dilution MIC of vancomycin preparations (Sigma, Cutis), diluent, Na benzoate and Na citrate
Type: cell-based
Conditions: for MIC, AV (average): average of triplicate; for MIC, VAN-1: replicate 1; for MIC, VAN-2: replicate 2; for MIC, VAN-3: replicate 3
Experimental: Introduction: The purpose of the study was to compare the MICs obtained with the formulation of vancomycin HCL of the invention (Cutis) to formulations obtained using a vancomycin HCL reference standard powder obtained from Sigma. The Example also involves the analysis of a solution or diluent to determine if it has antimicrobial activity at the concentrations present in the agar dilution test.
The C. difficile were tested by agar dilution according to the procedures in the Clinical and Laboratory Standards Institute. 2012. Methods for antimicrobial susceptibility testing of anaerobic bacteria; approved standard-seventh edition.
Other anaerobic organisms included clinical isolates of Bifidobacterium adolescentis and Bacteroides fragilis. Clostridium difficile ATCC 700057 was included as a quality control strain.
The C. difficile isolates were recovered from patients with CDI during the past two years and stored at −70° C. in 20% skim milk. Ribotyping was performed by another reference laboratory. The strains were taken from the freezer and subcultured at least twice to ensure purity and good growth.
On the day of testing, they were suspended in Brucella broth to the turbidity of the 0.5 McFarland standard for testing.
Stock solution of the Sigma vancomycin was prepared in water and stored at −70° C. On the day of testing, it was thawed and further diluted in water to obtain the desired range of 16-0.125 μg/ml. The Cutis vancomycin (25 mg/ml) was reconstituted on the day of testing and further diluted for a final range of 16-0.125 μg/ml in the test. The antimicrobials were added to molten Brucella agar supplemented with vitamin K and hemin to prepare the plates. Drug-free growth controls were included for testing before and after each set of plates. All testing was done in triplicate.
The organisms were pipetted into the wells of the Steers replicator head and applied to the plates with the multi-pronged replicator. The final concentration of organisms was ˜10^5 CFU/spot.
The plates were incubated in the anaerobic chamber incubator for 44 h and examined for growth.
The Cutis diluent comprises: water, about 0.12% (w/v) citric acid (anhydrous), 0.2% (w/v) sucralose, about 0.05% (w/v) artificial grape flavor, 0.1% (w/v) sodium benzoate, about 0.0002% (w/v) D&C Yellow No. 10 and about 0.000038% (w/v) FD&C Red No. 40.

[1] = ATCC 700057 quality control strain, first set (r41)
[2] = ATCC 700057 quality control strain, second set (r74)

Structure (SMILES): CN[C@H](CC(C)C)C(=O)N[C@H]1C(=O)N[C@@H](CC(N)=O)C(=O)N[C@H]2C(=O)N[C@H]3C(=O)N[C@H](C(=O)N[C@H](C(=O)O)c4cc(O)cc(O)c4-c4cc3ccc4O)[C@H](O)c3ccc(c(Cl)c3)Oc3cc2cc(c3O[C@@H]2O[C@H](CO)[C@@H](O)[C@H](O)[C@H]2O[C@H]2C[C@](C)(N)[C@H](O)[C@H](C)O2)Oc2ccc(cc2Cl)[C@H]1O.Cl [Sigma]
- MIC, AV (average) [1]: 2 µg/mL
- MIC, VAN-1 [1]: 2 µg/mL
- MIC, VAN-2 [1]: 2 µg/mL
- MIC, VAN-3 [1]: 2 µg/mL
- MIC, AV (average) [2]: 2 µg/mL
- MIC, VAN-1 [2]: 2 µg/mL
- MIC, VAN-2 [2]: 2 µg/mL
- MIC, VAN-3 [2]: 2 µg/mL
- MIC, AV (average) (RMA 24504, ribotype 027): 2 µg/mL
- MIC, VAN-1 (RMA 24504, ribotype 027): 2 µg/mL
- MIC, VAN-2 (RMA 24504, ribotype 027): 2 µg/mL
- MIC, VAN-3 (RMA 24504, ribotype 027): 2 µg/mL
- MIC, AV (average) (RMA 24510, ribotype 027): 1.7 µg/mL
- MIC, VAN-1 (RMA 24510, ribotype 027): 2 µg/mL
- MIC, VAN-2 (RMA 24510, ribotype 027): 2 µg/mL
- MIC, VAN-3 (RMA 24510, ribotype 027): 1 µg/mL
- MIC, AV (average) (RMA 24519, ribotype 027): 1.7 µg/mL
- MIC, VAN-1 (RMA 24519, ribotype 027): 2 µg/mL
- MIC, VAN-2 (RMA 24519, ribotype 027): 2 µg/mL
- MIC, VAN-3 (RMA 24519, ribotype 027): 1 µg/mL
- MIC, AV (average) (RMA 24527, ribotype 014): 2 µg/mL
- MIC, VAN-1 (RMA 24527, ribotype 014): 2 µg/mL
- MIC, VAN-2 (RMA 24527, ribotype 014): 2 µg/mL
- MIC, VAN-3 (RMA 24527, ribotype 014): 2 µg/mL
- MIC, AV (average) (RMA 24529, ribotype 014): 2 µg/mL
- MIC, VAN-1 (RMA 24529, ribotype 014): 2 µg/mL
- MIC, VAN-2 (RMA 24529, ribotype 014): 2 µg/mL
- MIC, VAN-3 (RMA 24529, ribotype 014): 2 µg/mL
- MIC, AV (average) (RMA 24541, ribotype 020): 1.7 µg/mL
- MIC, VAN-1 (RMA 24541, ribotype 020): 1 µg/mL
- MIC, VAN-2 (RMA 24541, ribotype 020): 2 µg/mL
- MIC, VAN-3 (RMA 24541, ribotype 020): 2 µg/mL
- MIC, AV (average) (RMA 24543, ribotype 020): 1.3 µg/mL
- MIC, VAN-1 (RMA 24543, ribotype 020): 1 µg/mL
- MIC, VAN-2 (RMA 24543, ribotype 020): 1 µg/mL
- MIC, VAN-3 (RMA 24543, ribotype 020): 2 µg/mL
- MIC, AV (average) (RMA 24547, ribotype 014): 1 µg/mL
- MIC, VAN-1 (RMA 24547, ribotype 014): 1 µg/mL
- MIC, VAN-2 (RMA 24547, ribotype 014): 1 µg/mL
- MIC, VAN-3 (RMA 24547, ribotype 014): 1 µg/mL
- MIC, AV (average) (RMA 24560, ribotype 078): 1.7 µg/mL
- MIC, VAN-1 (RMA 24560, ribotype 078): 2 µg/mL
- MIC, VAN-2 (RMA 24560, ribotype 078): 2 µg/mL
- MIC, VAN-3 (RMA 24560, ribotype 078): 1 µg/mL
- MIC, AV (average) (RMA 24561, ribotype 078): 2 µg/mL
- MIC, VAN-1 (RMA 24561, ribotype 078): 2 µg/mL
- MIC, VAN-2 (RMA 24561, ribotype 078): 2 µg/mL
- MIC, VAN-3 (RMA 24561, ribotype 078): 2 µg/mL
- MIC, AV (average) (RMA 24567, ribotype 020): 2 µg/mL
- MIC, VAN-1 (RMA 24567, ribotype 020): 2 µg/mL
- MIC, VAN-2 (RMA 24567, ribotype 020): 2 µg/mL
- MIC, VAN-3 (RMA 24567, ribotype 020): 2 µg/mL
- MIC, AV (average) (RMA 24575, ribotype 078): 2.7 µg/mL
- MIC, VAN-1 (RMA 24575, ribotype 078): 2 µg/mL
- MIC, VAN-2 (RMA 24575, ribotype 078): 4 µg/mL
- MIC, VAN-3 (RMA 24575, ribotype 078): 2 µg/mL
- MIC, AV (average) (RMA 24594, ribotype 106): 3.3 µg/mL
- MIC, VAN-1 (RMA 24594, ribotype 106): 4 µg/mL
- MIC, VAN-2 (RMA 24594, ribotype 106): 2 µg/mL
- MIC, VAN-3 (RMA 24594, ribotype 106): 4 µg/mL
- MIC, AV (average) (RMA 24601, ribotype 106): 2 µg/mL
- MIC, VAN-1 (RMA 24601, ribotype 106): 2 µg/mL
- MIC, VAN-2 (RMA 24601, ribotype 106): 2 µg/mL
- MIC, VAN-3 (RMA 24601, ribotype 106): 2 µg/mL
- MIC, AV (average) (RMA 24605, ribotype 002): 2 µg/mL
- MIC, VAN-1 (RMA 24605, ribotype 002): 2 µg/mL
- MIC, VAN-2 (RMA 24605, ribotype 002): 2 µg/mL
- MIC, VAN-3 (RMA 24605, ribotype 002): 2 µg/mL
- MIC, AV (average) (RMA 24607, ribotype 106): 2 µg/mL
- MIC, VAN-1 (RMA 24607, ribotype 106): 2 µg/mL
- MIC, VAN-2 (RMA 24607, ribotype 106): 2 µg/mL
- MIC, VAN-3 (RMA 24607, ribotype 106): 2 µg/mL
- MIC, AV (average) (RMA 24608, ribotype 002): 2 µg/mL
- MIC, VAN-1 (RMA 24608, ribotype 002): 2 µg/mL
- MIC, VAN-2 (RMA 24608, ribotype 002): 2 µg/mL
- MIC, VAN-3 (RMA 24608, ribotype 002): 2 µg/mL
- MIC, AV (average) (RMA 24615, ribotype 005): 2 µg/mL
- MIC, VAN-1 (RMA 24615, ribotype 005): 2 µg/mL
- MIC, VAN-2 (RMA 24615, ribotype 005): 2 µg/mL
- MIC, VAN-3 (RMA 24615, ribotype 005): 2 µg/mL
- MIC, AV (average) (RMA 24628, ribotype 012): 2 µg/mL
- MIC, VAN-1 (RMA 24628, ribotype 012): 2 µg/mL
- MIC, VAN-2 (RMA 24628, ribotype 012): 2 µg/mL
- MIC, VAN-3 (RMA 24628, ribotype 012): 2 µg/mL
- MIC, AV (average) (RMA 24641, ribotype 001/072): 2 µg/mL
- MIC, VAN-1 (RMA 24641, ribotype 001/072): 2 µg/mL
- MIC, VAN-2 (RMA 24641, ribotype 001/072): 2 µg/mL
- MIC, VAN-3 (RMA 24641, ribotype 001/072): 2 µg/mL
- MIC, AV (average) (RMA 24643, ribotype 001/072): 2 µg/mL
- MIC, VAN-1 (RMA 24643, ribotype 001/072): 2 µg/mL
- MIC, VAN-2 (RMA 24643, ribotype 001/072): 2 µg/mL
- MIC, VAN-3 (RMA 24643, ribotype 001/072): 2 µg/mL
- MIC, AV (average) (RMA 24646, ribotype 001/072): 2 µg/mL
- MIC, VAN-1 (RMA 24646, ribotype 001/072): 2 µg/mL
- MIC, VAN-2 (RMA 24646, ribotype 001/072): 2 µg/mL
- MIC, VAN-3 (RMA 24646, ribotype 001/072): 2 µg/mL
- MIC, AV (average) (RMA 24655, ribotype 005): 2 µg/mL
- MIC, VAN-1 (RMA 24655, ribotype 005): 2 µg/mL
- MIC, VAN-2 (RMA 24655, ribotype 005): 2 µg/mL
- MIC, VAN-3 (RMA 24655, ribotype 005): 2 µg/mL
- MIC, AV (average) (RMA 24678, ribotype 012): 4 µg/mL
- MIC, VAN-1 (RMA 24678, ribotype 012): 4 µg/mL
- MIC, VAN-2 (RMA 24678, ribotype 012): 4 µg/mL
- MIC, VAN-3 (RMA 24678, ribotype 012): 4 µg/mL
- MIC, AV (average) (RMA 24683, ribotype 027): 2 µg/mL
- MIC, VAN-1 (RMA 24683, ribotype 027): 2 µg/mL
- MIC, VAN-2 (RMA 24683, ribotype 027): 2 µg/mL
- MIC, VAN-3 (RMA 24683, ribotype 027): 2 µg/mL
